Key:
NCI-H23 = format: cell-based
NCI-H522 = format: cell-based
EKVX = format: cell-based
[1] = test system: Non-small cell lung cancer cell lines; test: NCI-60 five-dose, subpanel
Source text: (§2) Furthermore, the average sensitivity of all cell lines to the compound is termed as the full panel mean graph midpoints (MG-MID). The complete panel mean graph midpoints refers to the average sensitivity of all cell lines to the chemical (MG-MID). A measure of a compound’s selectivity for a given cell line is the ratio created by dividing the full panel mean graph midpoints (MG-MID) concentration by the individual subpanel MG-MID concentrations (obtained as the average sensitivity of all the cell lines in a given subpanel to the test compound).
(§3) Assessment of selectivity of a compound depends on the ratio obtained by dividing the full panel MID ^a by their individual subpanel MID ^b (µM) where MID^a is the average sensitivity of all cell lines towards the test agent (µM).

SF-539 = format: cell-based
NCI-H226 = format: cell-based
MDA-MB-435 = format: cell-based
HT29 = format: cell-based
[2] = test system: caspase 3 level in HL60 cells; test: Caspase 3 ELISA; format: cell-based, human; details: HL 60 cells
Method: (§1) One of the most significant downstream caspases, Caspase-3, is referred to as an effector caspase[94]^,[95]. For further analysis, the effect of compound 1c on caspase 3 enzyme level was measured using ELISA kit (Invitrogen, Catalog # KHO1091) according to the manufacturer’s instructions. Briefly, 100 µl of the standard diluent buffer to the zero standard wells. Additionally, 100 µl of standards and controls or diluted samples were added to the appropriate microtiter wells, then wells were covered with plate cover and incubated for 2 h at R.T. Afterwards, wells were aspirated gently, washed with washing buffer 4 times. Furthermore, 100 µl of caspase 3 detection antibody was added into each well except the blank wells, and the plate was covered and incubated for 1 h at R.T. Then, the aspiration and washing steps were repeated again. Finally, 100 µl of the stabilised chromogen solution were added, plate was incubated for 30 min at R.T., stop solution was used to stop the reaction and the developed colour was measured at wave length 450 nm using plat ELISA reader.

[3] = test system: caspase 3 level in leukaemia SR cells; test: Caspase 3 ELISA; format: cell-based, human
Method: as §1

SF-295 = format: cell-based
CCRF-CEM = format: cell-based
HOP-62 = format: cell-based
U251 = format: cell-based
OVCAR-3 = format: cell-based
Renal cancer cell lines = test: NCI-60 five-dose, subpanel
Source text: A measure of a compound’s selectivity for a given cell line is the ratio created by dividing the full panel mean graph midpoints (MG-MID) concentration by the individual subpanel MG-MID concentrations (obtained as the average sensitivity of all the cell lines in a given subpanel to the test compound).
as §3

SK-MEL-5 = format: cell-based
A549/ATCC = format: cell-based
M14 = format: cell-based
NCI/ADR-RES = format: cell-based
T-47D = format: cell-based
SN12C = format: cell-based, human; details: Homo sapiens, one dose 10^-5 M, 48 h
HCT-116 = format: cell-based
SK-MEL-2 = format: cell-based
CAKI-1 = format: cell-based
CNS Cancer cell lines = test: NCI-60 five-dose, subpanel
Source text: as §2, §3

[4] = Homo sapiens, five-dose, read-out: LC50 (the source's name)
[5] = Homo sapiens, one dose 10^-5 M, 48 h, read-out: % growth
[6] = Homo sapiens, one dose 10^-5 M, 48 h
[7] = Homo sapiens, read-out: GI50 Subpanel MID^b

N#Cc1c(N)nc(S)nc1-c1ccc(Cl)cc1Cl [Compound 1c, 4-Amino-6–(2,4-dichlorophenyl)-2-mercaptopyrimidine-5-carbonitrile]
GI50 (NCI-H23; Homo sapiens, five-dose): 13.1 µM
CC50 (NCI-H23; [4]): 60.9 µM
activity at 10 µM (NCI-H23; [5]): 76.1%
TGI (NCI-H23; five-dose): 28.30 µM
GI50 (NCI-H522; Homo sapiens, five-dose): 15.4 µM
CC50 (NCI-H522; [4]): 61.3 µM
% growth at 10 µM (NCI-H522; [6]): 49.4%
TGI (NCI-H522; five-dose): 30.70 µM
GI50 (EKVX; Homo sapiens, five-dose): 14.3 µM
LC50 (EKVX; Homo sapiens, five-dose): 62.6 µM
% cell growth at 10 µM (EKVX; [6]): 98.6%
TGI (EKVX; five-dose): 29.90 µM
GI50 [1, 7]: 18.1 µM
Selectivity ratio (full panel MID^a / subpanel MID^b, GI50 level) ([1]; non-small cell lung cancer): 0.7
GI50 (SF-539; Homo sapiens, five-dose): 10.8 µM
CC50 (SF-539; [4]): 52.4 µM
% growth at 10 µM (SF-539; [6]): 39.9%
TGI (SF-539; five-dose): 23.80 µM
GI50 (NCI-H226; Homo sapiens, five-dose): 16.5 µM
LC50 (concentration killing 50% of tumour cells) (NCI-H226; Homo sapiens, five-dose): 82 µM
% growth at 10 µM (NCI-H226; [6]): 64.4%
TGI (NCI-H226; five-dose): 36.80 µM
GI50 (MDA-MB-435; Homo sapiens, five-dose): 10.5 µM
CC50 (MDA-MB-435; [4]): > 100 µM
activity at 10 µM (MDA-MB-435; [5]): 25.3%
TGI (MDA-MB-435; five-dose): 38.00 µM
GI50 (HT29; Homo sapiens, HT-29, five-dose): 13.8 µM
CC50 (HT29; Homo sapiens, HT-29, five-dose, read-out: LC50 (the source's name)): 68.9 µM
% growth at 10 µM (HT29; Homo sapiens, HT-29, one dose 10^-5 M, 48 h): 24.7%
TGI (HT29; five-dose): 30.80 µM
caspase 3 level increase vs untreated control [2]: 5.6 folds
caspase 3 level increase vs untreated control [3]: 3.4 folds
GI50 (SF-295; Homo sapiens, five-dose): 10.4 µM
CC50 (SF-295; [4]): 49 µM
% cell growth at 10 µM (SF-295; [6]): 78.1%
TGI (SF-295; five-dose): 22.60 µM
GI50 (CCRF-CEM; Homo sapiens, five-dose): 0.3 µM
LC50 (concentration killing 50% of tumour cells) (CCRF-CEM; Homo sapiens, five-dose): > 100 µM
% cell growth at 10 µM (CCRF-CEM; [6]): 7.65%
TGI (CCRF-CEM; five-dose): 16.10 µM
GI50 (HOP-62; Homo sapiens, five-dose): 18.2 µM
LC50 (concentration killing 50% of cells) (HOP-62; Homo sapiens, five-dose): 88.6 µM
% growth at 10 µM (HOP-62; [6]): 81.3%
TGI (HOP-62; five-dose): 40.20 µM
GI50 (U251; Homo sapiens, U-251, five-dose): 13.4 µM
CC50 (U251; Homo sapiens, U-251, five-dose, read-out: LC50 (the source's name)): 68.9 µM
% growth at 10 µM (U251; Homo sapiens, U-251, one dose 10^-5 M, 48 h): 38.8%
TGI (U251; five-dose): 30.40 µM
GI50 (OVCAR-3; Homo sapiens, five-dose): 18.1 µM
CC50 (OVCAR-3; [4]): > 100 µM
% growth at 10 µM (OVCAR-3; [6]): 17.1%
TGI (OVCAR-3; five-dose): 47.60 µM
GI50 (Renal cancer cell lines; [7]): 14.2 µM
Selectivity ratio (full panel MID^a / subpanel MID^b, GI50 level) (Renal cancer cell lines; renal cancer): 0.9
GI50 (SK-MEL-5; Homo sapiens, five-dose): 5.56 µM
CC50 (SK-MEL-5; [4]): 45 µM
activity at 10 µM (SK-MEL-5; [5]): 58.1%
TGI (SK-MEL-5; five-dose): 19.50 µM
GI50 (A549/ATCC; Homo sapiens, five-dose): 25.8 µM
LC50 (A549/ATCC; Homo sapiens, five-dose): > 100 µM
% growth at 10 µM (A549/ATCC; [6]): 90.1%
TGI (A549/ATCC; five-dose): 77.40 µM
GI50 (M14; Homo sapiens, five-dose): 2.42 µM
CC50 (M14; [4]): 93.7 µM
% growth at 10 µM (M14; [6]): 49.8%
TGI (M14; five-dose): 28.00 µM
GI50 (NCI/ADR-RES; Homo sapiens, five-dose): 0.7 µM
CC50 (NCI/ADR-RES; [4]): > 100 µM
cell growth percent at 10 µM (NCI/ADR-RES; [6]): 37.9%
TGI (NCI/ADR-RES; five-dose): 26.20 µM
GI50 (T-47D; Homo sapiens, T47D, five-dose): 9.87 µM
CC50 (T-47D; Homo sapiens, T47D, five-dose, read-out: LC50 (the source's name)): > 100 µM
activity at 10 µM (T-47D; Homo sapiens, T47D, one dose 10^-5 M, 48 h, read-out: % growth): 54.5%
TGI (T-47D; five-dose): 32.30 µM
% growth at 10 µM (SN12C): 62.1%
GI50 (HCT-116; Homo sapiens, five-dose): 0.06 µM
CC50 (HCT-116; [4]): 63.6 µM
activity at 10 µM (HCT-116; [5]): -18.8%
TGI (HCT-116; five-dose): 17.90 µM
% growth (HCT-116; one dose 10^-5 M, 48 h): -18.77%
GI50 (SK-MEL-2; Homo sapiens, five-dose): 17.5 µM
LC50 (SK-MEL-2; Homo sapiens, five-dose): 66.8 µM
% growth at 10 µM (SK-MEL-2; [6]): 98.6%
TGI (SK-MEL-2; five-dose): 34.20 µM
% growth at 10 µM (CAKI-1; Homo sapiens, CAKI-1, 48 h, one dose 10^-5 M, 48 h): 72.3%
GI50 (CAKI-1; Homo sapiens, five-dose): 18.4 µM
CC50 (CAKI-1; [4]): > 100 µM
TGI (CAKI-1; five-dose): 45.70 µM
Selectivity ratio (full panel MID^a / subpanel MID^b, GI50 level) (CNS Cancer cell lines; CNS cancer): 1.04
GI50 (CNS Cancer cell lines; [7]): 12.4 µM
